PMC12525028, “Blood–Brain Barrier Penetration of Novel 4-Trifluoromethyl-Coumarin Hybrids with Antibacterial Properties as Potential Brain Therapeutics in the Context of Spatially Diverse Healthcare Systems” (International Journal of Molecular Sciences, 2025)
≈ marks a conversion by molar mass, not a printed value. Entries after “also recorded” stand apart in the source; their conditions may differ. Read-outs that look alike come from different tables or passages of the source.

Columns and labels:
[1] = Transfer of coumarins from blood to CSF in sheep (third ventricle CSF, spectrophotometric); details: for Mean (μg/mL) Value with Centrifugation (average coumarin concentration in CSF) / Value (μg/mL) Without Centrifugation (average coumarin concentration in CSF): iv infusion 50 mg/500 mL over 15 min; for Mean (μg/mL) Value with Centrifugation (average coumarin concentration in CSF): CSF centrifuged; for Value (μg/mL) Without Centrifugation (average coumarin concentration in CSF): CSF not centrifuged; for change in CSF concentration level after centrifugation: paired data before/after centrifugation; for transfer to the CSF (coumarin concentration level higher than 0) / crossing of the BBB/BCSFB (in words) / metabolism after crossing the BBB/BCSFB (in words): sheep; for transfer to the CSF (coumarin concentration level higher than 0): after centrifugation of CSF; for crossing of the BBB/BCSFB (in words): iv administration; for metabolism after crossing the BBB/BCSFB (in words): from regression and absorbance curves
[2] = Mass spectrometric determination of coumarin 2 in sheep CSF (ESI, positive mode); format: in vivo; details: sheep CSF after administration of compound 2, sodiated ion
Method: All reagents and solvents were purchased from Sigma-Aldrich (Saint Louis, MI, USA). All solvents were of analytical grade and were used without prior distillation. Merck silica gel 60 F254 plates were used for TLC (Thin-Layer Chromatography) analysis. The crude reaction mixtures were purified using column chromatography on Merck silica gel 60/230–400 mesh (Rahway, NJ, USA), with an appropriate mixture of hexanes and ethyl acetate as eluent. Nuclear magnetic resonance (NMR) spectra were performed on a Varian apparatus (Varian, Saint Louis, MI, USA) (400 MHz) and (500 MHz); the mass spectrometer was from Waters Company, Milford, MA, USA. Chemical shifts are expressed in ppm and the coupling constant (J) is expressed in Hz using TMS as an internal standard. […] Cerebrospinal fluid (CSF) samples were analyzed for the presence of the investigated coumarin derivative 2 using a SCIEX API 3000 triple quadrupole mass spectrometer (Science, Engineering, and Technology (SCIEX, Concord, ON, Canada)) equipped with an electrospray ionization (ESI) source operated in positive ion mode.
Sheep CSF samples were collected and stored at −80 °C until further analysis. […] The samples were analyzed using a SCIEX API 3000 triple quadrupole mass spectrometer equipped with an electrospray ionization (ESI) source operating in positive ion mode. […]

[3] = Solubility in water (observation); format: physicochemical
[4] = in vivo; for crossing of the BBB/BCSFB (in words): iv
MTT cytotoxicity assay [5] = details: mouse; for viability at 24 h, 0.5 µg/mL: cell viability, BALB/c-3T3, 0.5 µg/mL, MTT
Method: (§1) The cytotoxic effects of the tested peptidomimetics 1–8 on BALB/c-3T3 mouse fibroblast cells and gonadotroph cell lines such αT3-1 came from the ATCC collection.
(§2) All cells were cultured in Petri dishes in DMEM in a 5% CO2 incubator. Balb/c3T3 cells required supplementation with 10% fetal bovine serum (PAA Laboratories, cat. no. A15-751), whereas αT3-1 cells were maintained in monolayer cultures in DMEM supplemented with 10% fetal bovine serum, 100 U/ml penicillin G, and 0.1 mg/mL streptomycin (Invitrogen, China) in humidified 5% CO2, 95% air, at 37 °C. The cells were passed at ~95% confluence using a trypsin-EDTA solution (0.05% trypsin, 0.5 mM EDTA). Cells were kept in phenol red-free medium containing charcoal-treated fetal bovine serum for 4 days before the experiments. All cell lines were periodically treated with plasmacin (Invivogen #ant-mpt-1, 10 μg/mL for 2 weeks) and examined for mycoplasma contamination by DAPI staining or PCR as described in [72, 73, 74, 75].
(§3) Both cell lines were determined using the MTT assay after 24 h of incubation at five concentrations. The MTT test is based on the ability of mitochondrial dehydrogenase enzymes to convert an orange, water-soluble tetrazolium salt (3-(4,5-dimethylthiazol-2-yl)-2,5-diphenyltetrazolium bromide) into an insoluble formazan, which is a dark blue product of the above reaction. After the formazan crystals were placed in DMSO or isopropanol, a colored solution formed, and the intensity was measured spectrophotometrically within the wavelength range of 492–570 nm. The amount of colored reduced MTT was proportional to the oxidative activity of the cell mitochondria and, under strictly defined experimental conditions, to the number of metabolically active (living) cells in the population. The MTT test can also be used to determine cell viability in populations of cells that no longer divide, but are metabolically active.

MTT cytotoxicity assay [6] = details: mouse, αT3-1 pituitary gonadotrope cells; for viability at 24 h, 0.5 µg/mL: cell viability, αT3-1, 0.5 µg/mL, MTT
Method: as §1, §2, §3

in vitro [7] = details: mouse, cell viability, BALB/c-3T3, 0.5 µg/mL, MTT
Method: as §1, §2, §3

in vitro [8] = details: mouse, cell viability, αT3-1, 0.5 µg/mL, MTT
Method: as §1, §2, §3

[9] = BALB/c-3T3 mouse embryonic fibroblast cells

With `COc1ccc(CNC(=O)C(c2ccc(OC)cc2)N(C(=O)CCCC(=O)O)c2ccc3c(C)cc(=O)oc3c2)cc1` (centres unmarked) [Compound 1] the “Mean (μg/mL) Value with Centrifugation (average coumarin concentration in CSF)” value ([1]; sheep CSF) was 2 (+/−5) μg/mL and the “Value (μg/mL) Without Centrifugation (average coumarin concentration in CSF)” value (“Value (μg/mL) Without Centrifugation” below) ([1]; sheep CSF) was 10 (+/−5) μg/mL.

With `CCOC(=O)CNC(=O)C(Nc1ccc2c(C(F)(F)F)cc(=O)oc2c1)c1ccccc1` (centres unmarked) [Compound 2] the “detection in CSF by ESI-MS” value [2] was “presence of the compound as its sodiated ion”, the “solubility in water (in words)” value [3] was “does not dissolve in water” and the “crossing of the BBB/BCSFB (in words)” value [4] was “penetrated the blood–brain barrier to the greatest extent”. For the same compound, the “protein binding (in words)” value ([4]; sheep) was “binds well to proteins”, the IC50 at 24 h (MTT cytotoxicity assay [5]) was 6.58 mg/L (≈ 14.7 µM) and the IC50 at 24 h (MTT cytotoxicity assay [6]) was 6.58 mg/L (≈ 14.7 µM). For the same compound, the “Value (μg/mL) Without Centrifugation” value ([1]; sheep CSF) was 350 (+/−5) μg/mL, the “average coumarin concentration in CSF after centrifugation” value ([1]; sheep CSF, iv infusion, after centrifugation) was 118.32 µg/mL and the “average coumarin concentration in CSF before centrifugation” value ([1]; sheep CSF, iv infusion, before centrifugation) was 355.85 µg/mL. For the same compound, the “change in CSF concentration level after centrifugation” value ([1]; sheep CSF) was “significant decrease” and the “transfer to the CSF (coumarin concentration level higher than 0)” value (“transfer to the CSF” for short) [1] was “statistically confirmed”.

With `COc1ccc(CNC(=O)C(c2ccccc2)N(C(=O)CCCC(=O)O)c2ccc3c(C)cc(=O)oc3c2)cc1` (centres unmarked) [Compound 3] the viability at 24 h, 0.5 µg/mL (MTT cytotoxicity assay [5]; [9]) was > 96%, the viability at 24 h, 0.5 µg/mL (MTT cytotoxicity assay [6]) was > 96% and the “Value (μg/mL) Without Centrifugation” value ([1]; sheep CSF) was 2.5 (+/−5) μg/mL. For the same compound, the “crossing of the BBB/BCSFB (in words)” value [1] was “crossed the BBB/BCSFB” and the “metabolism after crossing the BBB/BCSFB (in words)” value [1] was “partially metabolized”.

In the case of `CCOC(=O)CNC(=O)C(Nc1ccc2c(C(F)(F)F)cc(=O)oc2c1)c1ccc(OC)cc1` (centres unmarked) [Compound 4], the viability at 24 h, 0.5 µg/mL (in vitro [7]) is reported as > 96% and the viability at 24 h, 0.5 µg/mL (in vitro [8]) is reported as > 96%.

With `CCOC(=O)CNC(=O)C(c1ccc(OC)cc1)N(C(=O)Cc1ccccc1)c1ccc2c(C)cc(=O)oc2c1` (centres unmarked) [Compound 5] the viability at 24 h, 0.5 µg/mL (MTT cytotoxicity assay [5]; [9]) was > 96%, the viability at 24 h, 0.5 µg/mL (MTT cytotoxicity assay [6]) was > 96% and the “Value (μg/mL) Without Centrifugation” value ([1]; sheep CSF) was 5 (+/−5) μg/mL. The “crossing of the BBB/BCSFB (in words)” value [1] was “crossed the BBB/BCSFB” and the “metabolism after crossing the BBB/BCSFB (in words)” value [1] was “partially metabolized”.

With `Cc1cc(=O)oc2cc(/N=C/c3ccccc3)ccc12` [Compound 6] the viability at 24 h, 0.5 µg/mL (MTT cytotoxicity assay [5]; [9]) was > 96%, the viability at 24 h, 0.5 µg/mL (MTT cytotoxicity assay [6]) was > 96% and the “Value (μg/mL) Without Centrifugation” value ([1]; sheep CSF) was 8 (+/−5) μg/mL.

With `CCOC(=O)CNC(=O)C(Nc1ccc2c(C(F)(F)F)cc(=O)oc2c1)c1ccc(Br)cc1` (centres unmarked) [Compound 7] the “metabolism after crossing the BBB/BCSFB (in words)” value [4] was “partially metabolized”, the “transfer to the CSF” value [4] was “statistically confirmed” and the “crossing of the BBB/BCSFB (in words)” value [4] was “crossed the BBB/BCSFB”.

For `COc1ccc(CNC(=O)C(c2ccc(Br)cc2)N(C(=O)Cc2ccccc2)c2ccc3c(C)cc(=O)oc3c2)cc1` (centres unmarked) [Compound 8], the IC50 at 24 h (MTT cytotoxicity assay [5]; [9]) was 1.71 mg/L (≈ 2.73 µM), the IC50 at 24 h (MTT cytotoxicity assay [6]) was 1.71 mg/L (≈ 2.73 µM) and the “Mean (μg/mL) Value with Centrifugation (average coumarin concentration in CSF)” value ([1]; sheep CSF) was 20 (+/−5) μg/mL. The “Value (μg/mL) Without Centrifugation” value ([1]; sheep CSF) was 30 (+/−5) μg/mL, the “change in CSF concentration level after centrifugation” value ([1]; sheep CSF) was “significant decrease” and the “transfer to the CSF” value [1] was “statistically confirmed”. For the same compound, the “crossing of the BBB/BCSFB (in words)” value [1] was “penetrated the blood–brain barrier to the greatest extent; also recorded: capable of crossing the blood–brain barrier”.
